The source of these data is patent US4898861A, “Method for inhibiting the proliferation of tumor cells” (Hoffmann-La Roche Inc., priority 1988, dated 1990).

In test [1] the target is T1, peripheral binding site on thymoma cells (Mus musculus, UniProt P50637).
T1 construct: host or cells: AKR mouse thymoma line BW 5147.6.1.4.Oua^r.1; (washed cells in BGS buffer)
The experiment in a line: Binding of tritiated 7-chloro-5-(4-chlorophenyl)-1,3-dihydro-1-methyl-2H-1,4-benzodiazepin-2-one to thymoma cells (saturation, association, dissociation). On the procedure:
Thymoma cells, AKR mouse thymoma line, BW 5147.6.1.4.Oua^r.1.(Cell Distribution Center, Salk Institute, San Diego, Calif.), were grown in Iscove's Modified Dulbecco's Medium (IMDM) containing 5 percent fetal calf serum, collected by centrifugation at 100×g and washed in Balanced Glucose Salt (BGS) buffer, the composition of which is: KCl, 5.0 mM; NaCl, 120.0 mM; Na2 HPO4, 5.0 mM; Tris, 5.0 mM; CaCl2, 0.6 mM; MgSO4, 1.0 mM and glucose, 5.5 mM with a final pH of 7.4. Incubation and binding of tritiated 7-chloro-5-(4-chlorophenyl)-1,3-dihydro-1-methyl-2H-1,4-benzodiazepin-2-one to thymoma cells was carried out in BGS buffer at 0° C. for 40 minutes with the indicated concentrations of labeled ligand. To assay the binding, the rapid filtration method was utilized as outlined in the article of Taniguchi et al., Life Science, 27, 171-178 (1980) and 10 μM of unlabeled diazepam was used as the competitive inhibitor of binding to determine the nonspecific binding. A Saturation and Scratchard plot of the binding data using least square fit to define the regression line (r=0.97) was utilized (FIG. 1 and Insert).

In test [2] the test system is DS 19 Friend erythroleukemia cell line (FEL). The experiment in a line: Induction of differentiation of FEL cells (hemoglobin synthesis, benzidine staining). In kind it is cell-based, mouse. Conditions: for EC50 / EC20 / EC10: Mus musculus, 120 h, 5 days; for EC50: read-out: ED50 (concentration required to induce 50% of the FEL cells); for EC20: read-out: ED20 (concentration required to induce 20% of the FEL cells); for EC10: read-out: ED10 (concentration required to induce 10% of the FEL cells). As to the method: A DS 19 Friend erythroleukemia cell line (FEL) was utilized as the model for studying the effects of various benzodiazepines on cellular differentiation. The Friend lines were derived from mouse (DBA/2) spleen cells infected by the Friend virus complex. The FEL cells are a widely used model system for studying differentiation. […] The protocol utilized consisted of the benzidine staining method. Cells were seeded at 1×10^4 ml and incubated with inducers in Coster Culture Clusters ([…]) for 5 days. On the 5th day, two hundred (200) μl aliquots of cells were mixed with 100 μl of 0.2% benzidine dihydrochloride in 0.5N acetic acid with 1% of 30% H2 O2. Cells that stained blue were scored in a hemacytometer as a % of total cell number.
(§1) Of twenty five (25) of the benzodiazepines tested it was observed that sixteen induced differentiation (weakly to strongly active) in a concentration-dependent manner. The concentration of each compound required to induce 50%, 20% or 10% of the FEL cells along with the half-maximal concentrations for each compound required to inhibit 50% of the binding of 7-chloro-5-(4-chlorophenyl)-1,3-dihydro-1-methyl-2H-1,4-benzodiazepine-2-one to the FEL cells (IC50) is listed in the following table: […]

The target of test [3] is T2, peripheral-type benzodiazepine sites on FEL cells (Mus musculus, UniProt P50637).
T2 construct: endogenous in cells; host or cells: DS 19 Friend erythroleukemia cell line (FEL)
The experiment in a line: Inhibition of binding of 7-chloro-5-(4-chlorophenyl)-1,3-dihydro-1-methyl-2H-1,4-benzodiazepine-2-one to FEL cells.
Text: as §1

In another test the test system is Swiss 3T3 cells. As to conditions: Clarke and Ryan, Nature 287, 160-161 (1980), read-out: ED50 (inhibition of proliferation); cited from earlier work.
For test [4], the target named is T1, peripheral binding site on thymoma cells. As to the kind of experiment: Inhibition of tritiated diazepam binding to thymoma cells.
Where [5] appears, read: FEL cells, compounds 1-12, read-out: IC50 (inhibition of binding to FEL cells).
[6] abbreviates: stereoisomers, equivalent IC50's, read-out: IC50.
[7] abbreviates: FEL cells, compounds 13-16, in μM, read-out: IC50 (inhibition of binding to FEL cells).

Read-outs that look alike come from different tables or passages of the source.

T1 sequence (P50637 whole entry): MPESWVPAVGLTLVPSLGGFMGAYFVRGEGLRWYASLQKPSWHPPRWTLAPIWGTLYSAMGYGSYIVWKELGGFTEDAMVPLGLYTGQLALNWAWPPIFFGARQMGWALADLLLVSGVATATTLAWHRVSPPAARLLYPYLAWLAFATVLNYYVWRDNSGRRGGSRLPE
T2 sequence (P50637 whole entry): as above

Regarding `CN1C(=O)CN=C(c2ccc(Cl)cc2)c2cc(Cl)ccc21` [7-chloro-5-(4-chlorophenyl)-1,3-dihydro-1-methyl-2H-1,4-benzodiazepin-2-one], the dissociation constant Kd – broadly, the constant that tells how readily two partners part at equilibrium – in test [1] turned out to be 4.4 ± 1.1 nM. The “time of incubation to reach binding plateau” value in test [1] (0° C.) was determined as 30 min. Also, the “maximum amount of ligand bound (Bmax)” value in test [1] (saturation plot, BGS buffer, 0° C., 40 minutes, mean±s.e., n=5) is 477±98 fmoles per 10^6 cells.
Consider `C[C@@H]1N=C(c2ccccc2F)c2cc([N+](=O)[O-])ccc2N(C)C1=O` [Compound 1, (+)-5-(2-fluorophenyl)-1,3-dihydro-1,3-dimethyl-7-nitro-2H--1,4-benzodiazepin-2-one], for which, in test [2], the “induction of differentiation (in words)” value is on record as “most potent inducer tested” and the EC50 was found to be 9000 nM. In addition, the IC50 in test [3] (setting [5]) stood at 1.1 µM. Further, the IC50 in test [3] (setting [6]) was around 1 µM.
For `CN1C(=O)CN=C(c2ccc(O)cc2)c2cc(Cl)ccc21` [Compound 2, 7-chloro-1,3-dihydro-5-(4-hydroxyphenyl)-1-methyl-2H--1,4-benzodiazepin-2-one], the EC50 in test [2] was determined as 20000 nM. Besides, in test [3] (setting [5]), the IC50 came out at 0.1 µM.
Regarding `COc1ccc(C2=NCC(=O)N(C)c3ccc(Cl)cc32)cc1` [Compound 3, 7-chloro-5-(4-methoxyphenyl)-1-methyl-3H--1,4-benzodiazepin-2-one], the EC50 in test [2] is 33000 nM. Further, the IC50 in test [3] (setting [5]) was 0.015 µM.
For the molecule `CN1C(=O)CN=C(c2ccccc2)c2cc(Cl)ccc21` [Compound 4, diazepam, reference compound], the IC50 in the test on Swiss 3T3 cells is around 30000 nM; in test [3] (IC50 (inhibition of binding to FEL cells), FEL cells, compounds 1-12) it was 0.079 µM. Besides, the EC50 in test [2] was 55000 nM.
`CN1C(=O)C(O)N=C(c2ccccc2)c2cc(Cl)ccc21` (stereo not drawn) [Compound 5, 7-chloro-1,3-dihydro-3-hydroxy-1-methyl-5-phenyl-2H--1,4-benzodiazepin-2-one]: in test [2], the EC50 is 80000 nM. The IC50 in test [3] (setting [5]) turned out to be 0.236 µM.
Turning to `CN1C(=O)CN=C(c2ccccc2)c2ccccc21` [Compound 6, 1,3-dihydro-1-methyl-5-phenyl-2H--1,4-benzodiazepin-2-one], the EC50 in test [2] stood at 80000 nM. In addition, the IC50 in test [3] (setting [5]) worked out at 0.704 µM.
`CN1C(=O)CN=C(c2ccc(Cl)cc2)c2cc(F)ccc21` [Compound 7, 5-(4-chlorophenyl)-7-fluoro-1-methyl-3H--1,4-benzodiazepin-2(1H)--one]: in test [2], the EC20 was determined as 34000 nM. For the same molecule, the IC50 in test [3] (setting [5]) is 0.013 µM.
For the molecule `CN1C(=O)CN=C(c2ccc(Cl)cc2)c2ccccc21` [Compound 8, 5-(4-chlorophenyl)-1-methyl-3H--1,4-benzodiazepin-2(1H)--one], in test [2], the EC20 was found to be 30000 nM. Besides, in test [3] (setting [5]), the IC50 is 0.054 µM.
For the molecule `C[C@H]1N=C(c2ccccc2F)c2cc([N+](=O)[O-])ccc2N(C)C1=O` [Compound 9, (-)-5-(2-fluorophenyl)-1,3-dihydro-1,3-dimethyl-7-nitro-2H--1,4-benzodiazepin-2-one], in test [2], the “induction of differentiation (in words)” value is reported as “moderately active” and the EC20 came out at 86000 nM. Besides, the IC50 in test [3] (setting [5]) came out at 1.04 µM. Also, in test [3] (setting [6]), the IC50 was around 1 µM.
On to `CN1C(=O)CN=C(c2ccc(Cl)cc2)c2cc(Cl)ccc21` [Compound 10, 7-chloro-5-(4-chlorophenyl)-1,3-dihydro-1-methyl-2H--1,4-benzodiazepin-2-one], for which the “inhibition of tritiated diazepam binding” value in test [4] (200 nM unlabeled compound) is listed as “completely inhibit the binding of tritiated diazepam”. For the same molecule, the EC20 in test [2] was determined as 28000 nM. In addition, the IC50 in test [3] (setting [5]) was found to be 0.006 µM.
In the case of `CN1C(=O)C(O)N=C(c2ccc(Cl)cc2)c2cc(Cl)ccc21` (stereo not drawn) [Compound 11, 7-chloro-5-(4-chlorophenyl)-3-hydroxy-1,3-dihydro-1-methyl-2H--1,4-benzodiazepin-2-one], the EC20 in test [2] was determined as 45000 nM. For the same molecule, in test [3] (setting [5]), the IC50 was determined as 0.02 µM.
Take `CN1C(=O)CN=C(c2ccc(F)cc2)c2ccccc21` [Compound 12, 1-methyl-5-(4-fluorophenyl)-3H--1,4-benzodiazepin-2(1H)--one]: the EC20 in test [2] is 100000 nM. The IC50 in test [3] (setting [5]) came to 0.327 µM.
`CN1C(=O)CN=C(c2ccccc2F)c2cc([N+](=O)[O-])ccc21` [Compound 13, 5-(2-fluorophenyl)-1,3-dihydro-1-methyl-7-nitro-2H--1,4-benzodiazepin-2-one]: the EC10 in test [2] turned out to be 32000 nM. Also, in test [3] (setting [7]), the IC50 came to 0.08 µM.
The like results for `CN1C(=O)CN=C(c2ccc(Cl)cc2)c2cc([N+](=O)[O-])ccc21` [Compound 14, 5-(4-chlorophenyl)-1-methyl-7-nitro-3H--1,4-benzodiazepin-2(1H)--one] were, in that order, 60000 nM and 0.034 µM.
For `CN1C(=O)CN=C(c2ccccc2Cl)c2ccccc21` [Compound 15, 5-(2-chlorophenyl)-1-methyl-3H--1,4-benzodiazepin-2(1H)--one], in test [2], the EC10 is 60000 nM. The IC50 in test [3] (setting [7]) was found to be 0.175 µM.
Consider `CN1C(=O)CN=C(c2ccccc2Cl)c2cc(Cl)ccc21` [Compound 16, 7-chloro-5-(2-chlorophenyl)-1,3-dihydro-1-methyl-2H--1,4-benzodiazepin-2-one], for which the EC10 in test [2] is 60000 nM. Also, the IC50 in test [3] (setting [7]) is 0.011 µM.
With `O=C1CN=C(c2ccccc2Cl)c2cc([N+](=O)[O-])ccc2N1` [clonazepam, reference compound], the “inhibition of tritiated diazepam binding” value in test [4] (10 μM final concentration) is reported as “did not inhibit diazepam binding”.
